Reference: patent US8853129B2 (Dow AgroSciences, LLC., priority 2010, dated 2014)

Columns and labels:
Assay in all cases: Herbicidal activity of mixtures under field conditions, residual weed control in grape crop
Assay type in all cases: in vivo
[1] = system: common groundsel (Senecio vulgaris; SENVU); details: penoxsulam 7 g ai/ha; 103 days after application, Fronton, France; glyphosate tank mixed
Protocol: (§1) Trials were conducted under field conditions in France. Trial sites were located in commercially grown European grape crop (Vitis vinifera). The grapes were grown using normal cultural practices for fertilization, seeding, and maintenance to ensure good growth of the crop and the weeds. The trials were conducted using normal research methodology. Trial plots were between 2 to 4.5 meters (m) wide by 5.5 to 10 m long. […] The trial sites had naturally occurring populations of weeds. The weed spectrum included, but was not limited to, black nightshade (Solanum nigrum; SOLNI), common lambsquarter (Chenopodium album; CHEAL), common groundsel (Senecio vulgaris; SENVU), round-leaved […] spuria; KICSP) and common purslane (Portulaca olerace; POROL). […] Glyphosate was tank mixed with all treatments to provide complete foliar control of all weeds so that the residual weed control after application could be evaluated. The application volumes were between 150-325 liters per hectare (L/ha) of water. All application were made using precision gas hand sprayers using a 2 or 3 m boom using flat fan (80° or 110°) nozzles to broadcast the treatments on the soil. The treated plots and control plots were rated blind at various intervals after application. […] Data were collected for all trials and analyzed using various statistical methods. Colby's equation was used to determine the herbicidal effects expected from the mixtures (Colby, S. R. Calculation of the synergistic and antagonistic response of herbicide combinations. Weeds 1967, 15, 20-22). […] A=observed efficacy of active ingredient A at the same concentration as used in the mixture; B=observed efficacy of active ingredient B at the same concentration as used in the mixture.

[2] = system: common lambsquarter (Chenopodium album; CHEAL); details: penoxsulam 7 g ai/ha; 109 DAA, Fronton, France; glyphosate tank mixed
Protocol: as §1

[3] = system: black nightshade (Solanum nigrum; SOLNI); details: France, glyphosate tank mixed
Protocol: as §1

[4] = system: round-leaved fluellen (Kickxia spuria; KICSP); details: penoxsulam 7 g ai/ha; 103 days after application, Fronton, France; glyphosate tank mixed
Protocol: as §1

[5] = system: common purslane (Portulaca oleracea; POROL); details: penoxsulam 7 g ai/ha; 103 days after application, Fronton, France; glyphosate tank mixed
Protocol: as §1

**Q.** Which results are given for `COc1cnc(OC)n2nc(NS(=O)(=O)c3c(OCC(F)F)cccc3C(F)(F)F)nc12` [Penoxsulam]?
**A.** Percent Control SENVU Ob [1]: 27%; Percent Control CHEAL Ob [2]: 13%; Percent Control SOLNI (1) Ob ([3]; penoxsulam 5.6 g ai/ha, 56 DAA, Bourdic): 78%; Percent Control SOLNI (2) Ob ([3]; penoxsulam 7 g ai/ha, 68 DAA, Eshallat): 17%; Percent Control KICSP Ob [4]: 0%; Percent Control POROL Ob [5]: 0%
